Measurements from PMC11705955, “Lack of activity of HIV-1 integrase strand-transfer inhibitors on recombinase activating gene (RAG) activity at clinically relevant concentrations” (Microbiology Spectrum, 2024).

What was measured:
[1] = tested on: Expi293F cells; assay: Cell viability (CellTiterGlo) in the cellular RAG assay; format: cell-based, human; conditions: 48 hours after transfection, up to 10 µM (p8 up to 50 µM)
Protocol: After 48-h incubation at 37°C in a humidified 8% CO2 incubator, 100 µL of cell suspension was transferred to 96-well black assay plates (Corning). Each well of the assay plates then received 100 µL CellTiterGlo reagent and the resulting luminescence signal was read using the PHERAstar FSX plate reader (BMG Labtech, Germany).
Supplemental Figure S4. Cytotoxicity analysis of INSTIs in the cellular RAG assay using […]
Concentration (μM) Concentration (μM) Concentration (μM)
Expi293F cells were co-t ransfected with pMAXgfp- INV plasmid substrate, mCherry- core RAG1 , mCherry RAG2, with INSTIs added 2 hours after transfection. Six different concentrations of each […]
added to separate wells. % live cells normalized to 0.1% DMSO data are presented for INSTIs tested in cell viability (Cell- Titer Glo) assay 48 hours after transfection. BIC (n=5), CAB (n=3), concentrations tested. An ordinary one-way ANOVA with Dunnett's multiple comparisons test unmarked datapoints = not significant. […]
was used to compare % GFP levels to the DMSO control, *P ≤ 0.05, **P ≤ 0.01, ***P ≤ 0.001, (also on this page, place not known: live normalized 0.001 % live cells normalized DMSO 0.001 10 % live cells normalized DMSO 0.001 10 % live cells normalized to DMSO 0.001 10 % live cells normalized to DMSO E xpi293F cells co-transfected pMAXgfp-INV mCherry-core RAG1, 5-fold 10 to % live cells normalized to DMSO (n=3) one -way to % to DMSO)

[2] = tested on: RAG1/RAG2; conditions: cited from earlier work; for Effect on RAG binding or cleavage at the RSS: EVG 50–200 μM, RAL up to 200 µM
[3] = clinical concentrations; cited from earlier work
[4] = cited from earlier work; for Human clinical free Cmax: Cmax corrected for protein binding
[5] = tested on: T or B cells; conditions: cited from earlier work
[6] = target: RAG1; conditions: biolayer interferometry; read-out: Dissociation constant from RAG1; cited from earlier work
[7] = tested on: immunological competence; design: method as in PMID 22790968; conditions: TCR Vβ usage by flow cytometry and T cell-dependent antibody response; cited from earlier work
[8] = target: recombinant HIV-1 integrase; conditions: read-out: Target IC50 for integrase; cited from earlier work
[9] = tested on: murine RAG1/RAG2; design: method as in PMID 11756686; conditions: read-out: IC50 on RAG1/RAG2 in vitro; cited from earlier work

COc1cc2c(cc1Cc1cccc(Cl)c1F)c(=O)c(C(=O)O)cn2[C@H](CO)C(C)C [EVG, elvitegravir]
Cellular toxicity, % live cells normalized to 0.1% DMSO [1]: minimal effects on cellular toxicity
Effect on RAG binding or cleavage at the RSS [2]: inhibition of RAG cleavage at the RSS
Free drug fraction [3]: 0.48%
Human clinical free Cmax [4]: 22 nM
Effect on T or B cells in treated mice [5]: did not show a large decrease in T or B cells
Kd [6]: 32.5 µM

Cc1nnc(C(=O)NC(C)(C)c2nc(C(=O)NCc3ccc(F)cc3)c(O)c(=O)n2C)o1 [RAL, raltegravir]
Cellular toxicity, % live cells normalized to 0.1% DMSO [1]: minimal effects on cellular toxicity
Effect on RAG binding or cleavage at the RSS [2]: no effect on binding or cleavage

C[C@@H]1CCO[C@H]2Cn3cc(C(=O)NCc4ccc(F)cc4F)c(=O)c(O)c3C(=O)N12 [DTG, dolutegravir]
Cellular toxicity, % live cells normalized to 0.1% DMSO [1]: minimal effects on cellular toxicity
Decrease of DNA binding and cleavage by RAG1 ([2]; DTG 200–500 μM): 50%–75%
Free drug fraction [3]: 0.70%
Human clinical free Cmax [4]: 58 nM
Cmax ([4]; at clinical dosage of Table 1 (EVG with 150 mg cobicistat)): 8300 nM
Impact on immunological competence in juvenile rats [7]: no impact on immunological competence

C[C@H]1CO[C@@H]2Cn3cc(C(=O)NCc4ccc(F)cc4F)c(=O)c(O)c3C(=O)N12 [CAB, cabotegravir]
Cellular toxicity, % live cells normalized to 0.1% DMSO [1]: minimal effects on cellular toxicity
Human clinical free Cmax [4]: 25 nM
IC50 [8]: 0.003 µM

O=C(NCc1c(F)cc(F)cc1F)c1cn2c(c(O)c1=O)C(=O)N1[C@H]3CC[C@H](C3)O[C@@H]1C2 [BIC, bictegravir]
Cellular toxicity, % live cells normalized to 0.1% DMSO [1]: minimal effects on cellular toxicity
Human clinical free Cmax [4]: 34 nM
IC50 [8]: 0.0075 ± 0.0003 µM

O=C(/C=C(\O)c1nnn[nH]1)c1c[nH]c2ccc(Cl)cc12 [p8, 5-CITEP]
Cellular toxicity, % live cells normalized to 0.1% DMSO [1]: minimal effects on cellular toxicity
IC50 [9]: 200 µM
